Measurements as given in patent US5985292A, “Active phospholipids as a vector for active molecules” (Roussel-UCLAF, priority 1993, dated 1999).

System: comedones
Settings: topical
Method: As an example, the comedolytic power of all-trans 2-retinoyl phosphatidinyl ethanol was tested following the protocol below:
The animal chosen for the test of comedolytic activity was the Hairless Rhino (hr rh) mouse of female sex, this choice being due to the fact that the skin of such an animal has a high density of comedones having a large diameter and narrow orifice. The use of comedolytic agents on the skin of the animal provokes the opening of the orifice of the comedones, the release of the horny material and the sebum that it contains.
Two groups comprising six mice each which were six-week's old at the start of the test and weighing on average 18 grams each were used. The first group were mice treated with distilled water (negative control group) and the second group were mice treated with the product under study. The treatment consisted of a topical use of the product studied on the interscapular area at a dose of 0.02 ml, 5 days out of 7, for 21 days. The animals were sacrificed at the end of three weeks of treatment, 24 hours after the last application.
Biopsies of the skin were then taken from the treated areas of the animals and from these biopsies, sections were prepared for a standard morphometric study by methods known to a person skilled in the art. The following parameters were measured: diameter of the opening of the comedon at the surface i.e d […]
comedonian profile i.e R = d/D
The ratio R=d/D allowed the action of the comedolytic agents to be quantified.
The percentage of inhibition of the comedones was calculated for the product under study relative to the negative control, i.e. the following ratio: [formula]

all-trans 2-retinoyl phosphatidinyl ethanol
% inhibition of the comedones relative to the negative control (0.1% in solution in ethylenediglycol, interscapular, 0.02 ml, 5 days out of 7, for 21 days): 14.1% | comedonian profile R = d/D (diameter of the opening of the comedon at the surface / diameter of the comedon) (0.1% in solution in ethylenediglycol, interscapular, 0.02 ml, 5 days out of 7, for 21 days, negative control (distilled water) R = 0.78): 0.89 | comedolytic activity (in words) (at a dose of 0.1%, 21 days): good comedolytic activity
